Structures are written as SMILES.

One series addresses T1, CYP2C8 (Homo sapiens, UniProt P10632).
T1 construct: purchased BD Gentest, Becton-Dickinson (Supersomes); host or cells: insect cells (microsomes)
T1 sequence (P10632 1-490): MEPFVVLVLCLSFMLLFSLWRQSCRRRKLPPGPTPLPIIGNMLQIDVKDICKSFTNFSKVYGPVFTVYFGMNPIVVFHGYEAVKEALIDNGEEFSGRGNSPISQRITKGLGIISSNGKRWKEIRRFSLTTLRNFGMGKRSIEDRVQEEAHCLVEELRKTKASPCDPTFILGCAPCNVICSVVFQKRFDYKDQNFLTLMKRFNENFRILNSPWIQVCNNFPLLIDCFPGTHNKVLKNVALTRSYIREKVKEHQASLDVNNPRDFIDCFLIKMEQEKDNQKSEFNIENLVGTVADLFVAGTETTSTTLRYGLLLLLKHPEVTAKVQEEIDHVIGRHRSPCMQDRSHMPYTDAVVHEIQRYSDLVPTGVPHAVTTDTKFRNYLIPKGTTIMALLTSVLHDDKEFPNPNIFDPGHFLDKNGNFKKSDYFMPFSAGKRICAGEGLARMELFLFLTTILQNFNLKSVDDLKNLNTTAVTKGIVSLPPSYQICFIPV
The experiment in a line: Cytochrome P450 inhibition, CYP2C8. The settings on record: Supersomes; read-out: IC50 (μM) 2C8. Format: in vitro ADME. The source says: F. Assay for Cytochrome P450 Inhibition
Cytochrome P450 enzymes are implicated in the phase I metabolism of drugs. The majority of drug-drug interactions are metabolism-based and, moreover, these interactions typically involve inhibition of cytochrome P450s. Six CYP450 enzymes (CYP1A2, CYP2C8, CYP2C9, CYP2C19, CYP2D6 and CYP3A4) appear to be commonly responsible for the metabolism of most drugs and the associated drug-drug interactions. Assays to determine the binding of compounds of the invention to the various metabolically important isoforms of cytochrome P450 metabolizing enzymes are commercially available, for example NoAb BioDiscoveries (Mississaugua, ON, Canada) and Absorption Systems (Exton, Pa., USA). As well, a number of appropriate methods have been described or reviewed in the literature. (White, R. E. Ann. Rev. Pharmacol. Toxicol. 2000, 40, 133-157; Li, A. P. Drug. Disc. Today 2001, 6, 357-366; Turpeinen, M.; Korhonen, L. E. Tolonen, A.; et al. Eur. J. Pharm. Sci. 2006, 29, 130-138.)
The concentration of the inhibitor or test compound that inhibited metabolite formation by 50% (IC50) was calculated by non-linear regression analysis of the % inhibition vs. log concentration (M) curve.

The subject of series [1] is isolated colonic segments from the shrew. The experiment in a line: Contractile activity of isolated muscle strips of the shrew. The source says:
J. Evaluation of Contractile Activity of Isolated Muscle Strips from the Stomach, Duodenum and Colon of the Shrew.
Motilin (threshold concentration of 10^−8 M) enhances contractions induced by electrical field stimulation (4 Hz) by a post-ganglionic interaction with the cholinergic neurotransmission. At higher concentrations, motilin causes a tonic contraction interacting directly with the antral smooth muscle. Analogously, the effects of motilin and [Nle^13]-motilin (Calbiochem), as selective agonists of the motilin receptor, on smooth muscle strips isolated from the gastric antrum, the circular muscle of the duodenum and the colon of the shrew were investigated. Immunohistochemical studies have shown that endocrine cells in the GI tract of the musk shrew express motilin (Kanamori, Y.; Nakazawa, S.; Kitoh, J.; Hoshino, M. The distribution of endocrine cells in the mucosa of the gastrointestinal tract of the house musk shrew, Suncus murinus (Insectivora). Cell. Tissue Res. 1989, 258, 365-71; Kitamura, N.; Yamada, J.; Watanabe, T.; Yamashita, T. An immunohistochemical study on the distribution of endocrine cells in the gastrointestinal tract of the musk shrew, Suncus murinus. Histol Histopathol. 1990, 5, 83-88.) Shrews were fasted for 8-10 h, euthanized with CO2 inhalation, and the stomach, the duodenum and colon isolated immediately and placed in Krebs buffer aerated with 95% O2 and 5% CO2. Specifically, mucosa-free circular muscle strips were isolated from the antral region, the duodenum and the colon using a dissecting microscope. Isometric contractions were recorded in organ baths following equilibration at optimal tension using the PowerLab data acquisition system. […]
To define the effect of test compounds on different regions of the GI tract of the shrew (gastric antrum, […] and colon) and to evaluate the antagonist affinity of test compounds in this model system, the ability of varying concentrations of test compound to antagonize the motilin or [Nle^13]-motilin-induced contractions was measured in organ baths as described above. […]

One may read the IC50 as the concentration that gives 50% inhibition. In the case of `CCC[C@@H]1NC(=O)[C@@H](C(C)C)NC(=O)[C@@H](Cc2cccc(F)c2)N[C@@H](C)COc2ccccc2CCCNC1=O` [Compound 551], the IC50 at CYP2C8 was more than 100 µM. Take `CCC[C@@H]1NC(=O)[C@@H](C(C)C)NC(=O)[C@@H](Cc2ccc(O)c(Cl)c2)N[C@@H](C)COc2ccccc2CCCNC1=O` [Compound 552]: in series [1] (0.01 μM-10 μM, FIG. 18), the “effect on contractile response to 0.3 μM [Nle^13]-motilin” value is “dose-dependent inhibition” and the “effect on contractile response to 0.3 μM motilin” value is “dose-dependent inhibition”. Besides, in series [1] (data not shown), the “change in basal contractile activity” value is listed as “did not cause a significant change”. Take `CCC[C@@H]1NC(=O)[C@@H](C(C)C)NC(=O)[C@@H](Cc2ccc(O)c(C(C)(C)C)c2)NCCOc2ccccc2CCCNC1=O` [Compound 553]: the half-maximal inhibitory concentration (IC50) at CYP2C8 was more than 100 µM.

The values are drawn from patent US9133235B2, “Macrocyclic antagonists of the motilin receptor for treatment of gastrointestinal dysmotility disorders” (Ocera Therapeutics, Inc., priority 2006, dated 2015).
